# Reference: US10703779B2, “Oxadiazole cyclic peptides” (THE GOVERNING COUNCIL OF THE UNIVERSITY OF TORONTO, priority 2015, dated 2020)
# Where “and” joins values, the source holds several entries; their conditions need not be identical. Equal values may be shown once. Read-outs that look alike come from different tables or passages of the source.
# Columns and labels:
# [1] = multicomponent bond
# [2] = passive artificial membrane permeability (PAMPA) assay; type: in vitro ADME; settings: FIG. 10, oxadiazole-containing macrocycles (entries 1-7) compared with homodetic counterparts (entries 8-12)
# From the text: Passive membrane permeability is an important property for the development of new therapeutics. […] Using this analysis method a −log Pe value <6.0 is indicitive of a passively membrane permeable compound, while a −log Pe>6.0 is indicative of a poorly permeable or non-permeable compound. […] (entry 12).
# [3] = multicomponent bond; 18-membered ring; propionaldehyde/(N-isocyanimino)triphenylphosphorane; 25.0 °C
# [4] = 21-membered ring, propionaldehyde/(N-isocyanimino)triphenylphosphorane, DCE/MeCN 1:1, 25.0 mM, 50.0 °C, 2 steps
# [5] = 18-membered ring, propionaldehyde/(N-isocyanimino)triphenylphosphorane, DCE/MeCN 1:1, 25.0 mM, 50.0 °C, 2 steps
# [6] = 18-membered ring, phenylacetaldehyde/(N-isocyanimino)triphenylphosphorane, DCE/MeCN 1:1, 25.0 mM, 50.0 °C, 2 steps
# [7] = 18-membered ring, propionaldehyde/(N-isocyanimino)triphenylphosphorane, DCE/MeCN 1:1, 25.0 mM, 50.0 °C
# [8] = 15-membered ring, propionaldehyde/(N-isocyanimino)triphenylphosphorane, DCE/MeCN 1:1, 25.0 mM, 50.0 °C
# [9] = 21-membered ring, propionaldehyde/(N-isocyanimino)triphenylphosphorane, DCE/MeCN 1:1, 25.0 mM, 50.0 °C
# [10] = 18-membered ring, propionaldehyde/(N-isocyanimino)triphenylphosphorane, DCE/MeCN 1:1, 20.0 mM, 50.0 °C
substance,measurement,setting,value
PASWKG,"ring closure, isolated yield",[1]; [4],7%
PSLYA,"ring closure, isolated yield",[1]; [5],24%
PDAWYG,"ring closure, isolated yield",[1]; [4],28%
PSWAG,"ring closure, isolated yield",[1]; [6],26%
PSLYG,"ring closure, isolated yield",[1]; [6],22%
GPLGA,"ring closure, isolated yield",[1]; 18-membered ring,13% and 25%
same,"ring closure, isolated yield",[1]; [7],20%
ALFA,"ring closure, isolated yield",[1]; [8],20%
APLGK,"ring closure, isolated yield",[1]; [5],60%
PAFA,"ring closure, isolated yield",[1]; [8],23%
PRGDA,"ring closure, isolated yield",[1]; [5],70%
PWASG,"ring closure, isolated yield",[1]; [5],28%
cyclo(PFLLFA),passive membrane permeability (result in words),[2],single exception
PGLGFA,"ring closure, isolated yield",[1]; [9],41%
PSarLGF,"ring closure, isolated yield","[1]; 18-membered ring, α-MIDA-borylaldehyde/(N-isocyanimino)triphenylphosphorane, DCE/MeCN 1:1, 25.0 mM, 50.0 °C",28%
PALGF,"ring closure, isolated yield",[1]; [10],25%
PGRGDWA,"ring closure, isolated yield","[1]; 24-membered ring, propionaldehyde/(N-isocyanimino)triphenylphosphorane, DCE/MeCN 1:1, 25.0 mM, 50.0 °C, 2 steps",22%
PGLAF,"ring closure, isolated yield",[1]; [10],23%
APLGS,"ring closure, isolated yield",[1]; [5],70%
PLDFA,"ring closure, isolated yield",[1]; [5],52%
PGLGF,"ring closure, isolated yield",[1]; 18-membered ring,32%
same,"ring closure, isolated yield","[1]; 18-membered ring, phenylacetaldehyde/(N-isocyanimino)triphenylphosphorane, DCE/MeCN 1:1, 25.0 mM, 50.0 °C",29%
same,"ring closure, isolated yield","[1]; 18-membered ring, propionaldehyde/(N-isocyanimino)triphenylphosphorane, DCE/MeCN 1:1, 50.0 mM, 25.0 °C",68%
same,"ring closure, conversion",[3],100%
APLGA,"ring closure, isolated yield",[1]; [7],15%
PFDLA,"ring closure, isolated yield",[1]; [5],45%
PFLDA,"ring closure, isolated yield","[1]; 18-membered ring, acetone/(N-isocyanimino)triphenylphosphorane, DCE/MeCN 1:1 + acetone 30% v/v, 25.0 mM, 50.0 °C, 2 steps",10%
PSarLGFA,"ring closure, isolated yield",[1]; [9],42%
PALAF,"ring closure, isolated yield",[1]; [10],20%
PFLLF,"ring closure, isolated yield","[1]; 18-membered ring, propionaldehyde/(N-isocyanimino)triphenylphosphorane, DCE/MeCN 1:1, 16.7 mM, 50.0 °C",25%
AGFA,"ring closure, isolated yield",[1]; 15-membered ring,32%
same,"ring closure, isolated yield",[1]; [8],24%
PDAWG,"ring closure, isolated yield",[1]; [5],22%
